Results reported in ChEMBL document CHEMBL4431305, “Chermesins A-D: Meroterpenoids with a Drimane-Type Spirosesquiterpene Skeleton from the Marine Algal-Derived Endophytic Fungus Penicillium chermesinum EN-480” (J Nat Prod, 2016).
In brackets after ≈: the same amount, converted by molar mass. Activity calls are given as the source filed them. The rule behind the calls is not given here.

How the values were obtained:
Candida albicans = experiment: Antimicrobial activity against Candida albicans by microplate assay; format: functional
Micrococcus luteus = experiment: Antimicrobial activity against Micrococcus luteus by microplate assay; format: functional
Escherichia coli = experiment: Antimicrobial activity against Escherichia coli by microplate assay; format: functional
[1] = Toxicity in Artemia salina assessed as lethality at 100 ug/ml measured after 6 to 24 hrs; format: organism-based; conditions: in vivo
Vibrio alginolyticus = experiment: Antimicrobial activity against Vibrio alginolyticus by microplate assay; format: functional

With `C[C@@H]1[C@H](O)[C@@H](C)/C=C/C=C/C=C/C=C/C=C/C=C/C=C/[C@H](O[C@@H]2O[C@H](C)[C@@H](O)[C@H](N)[C@@H]2O)C[C@@H]2O[C@](O)(C[C@@H](O)C[C@@H](O)[C@H](O)CC[C@@H](O)C[C@@H](O)CC(=O)O[C@H]1C)C[C@H](O)[C@H]2C(=O)O` [AMPHOTERICIN B] as the molecule, how does the MIC (Candida albicans) read?
Its MIC is 2 µg/mL (≈ 2.16 µM).

Which MIC (Candida albicans) does the source give for `CC1=CC(=O)C(C)=C2O[C@@]3(C[C@]12C)[C@@H](C)CC[C@H]1C(C)(C)C(=O)CC[C@@]13C` here?
Its MIC is 64 µg/mL (≈ 173 µM).

And the MIC (Micrococcus luteus)?
The MIC was 8 µg/mL (≈ 21.6 µM).

What about the MIC (Escherichia coli) of the same molecule?
The MIC was 64 µg/mL (≈ 173 µM).

And the mortality at 100 ug/ml [1]?
The mortality at 100 ug/ml was < 60%.

What about the MIC (Vibrio alginolyticus) of the same molecule?
Its MIC is 64 µg/mL (≈ 173 µM).

With `CC1=C2O[C@@]3(C[C@]2(C)C(C)=C(C(=O)O)C1=O)[C@@H](C)CC[C@H]1C(C)(C)C(=O)CC[C@@]13C` as the molecule, how does the MIC (Candida albicans) read?
The MIC was “inactive”.

And the MIC (Micrococcus luteus)?
Its MIC is “inactive”.

What about the MIC (Escherichia coli) of the same molecule?
The MIC was 64 µg/mL (≈ 154 µM).

What about the mortality at 100 ug/ml [1] of the same molecule?
Its mortality at 100 ug/ml is < 60%.

And the MIC (Vibrio alginolyticus)?
Its MIC is “inactive”.

Which MIC (Micrococcus luteus) does the source give for `O=C(N[C@H](CO)[C@H](O)c1ccc([N+](=O)[O-])cc1)C(Cl)Cl` [CHLORAMPHENICOL] here?
The MIC was 2 µg/mL (≈ 6.19 µM).

What about the MIC (Escherichia coli) of the same molecule?
Its MIC is 2 µg/mL (≈ 6.19 µM).

And the MIC (Vibrio alginolyticus)?
Its MIC is 4 µg/mL (≈ 12.4 µM).

For `CC1=CC(=O)C(C)=C2O[C@@]3(C[C@]12C)[C@@H](C)CC[C@H]1C(C)(C)[C@@H](O)CC[C@@]13C`, which MIC (Candida albicans) is on record?
Its MIC is 32 µg/mL (≈ 85.9 µM).

And the MIC (Micrococcus luteus)?
The MIC was 8 µg/mL (≈ 21.5 µM).

What about the MIC (Escherichia coli) of the same molecule?
Its MIC is 32 µg/mL (≈ 85.9 µM).

What about the mortality at 100 ug/ml [1] of the same molecule?
The mortality at 100 ug/ml was < 60%.

And the MIC (Vibrio alginolyticus)?
Its MIC is 32 µg/mL (≈ 85.9 µM).

Which MIC (Candida albicans) does the source give for `COC(=O)[C@@H]1C(=O)C(C)=C2O[C@@]3(C[C@]2(C)[C@H]1C)[C@@H](C)[C@@H](O)C[C@H]1C(C)(C)[C@@H](O)CC[C@@]13C` here?
The MIC was “inactive”.

And the MIC (Micrococcus luteus)?
The MIC was “inactive”.

What about the MIC (Escherichia coli) of the same molecule?
Its MIC is “inactive”.

What about the mortality at 100 ug/ml [1] of the same molecule?
The mortality at 100 ug/ml was < 60%.

And the MIC (Vibrio alginolyticus)?
The MIC was “inactive”.
